# Measured values as given in US20230085307A1, “PYRIDAZINONE COMPOUND AND HERBICIDE” (NISSAN CHEMICAL CORPORATION, priority 2019, published 2023).
# How the values were obtained:
# chickweed = test: Test Example 5: herbicidal effect by foliage application, plastic box (Table 20, symbol P); type: in vivo, common chickweed (Stellaria media); conditions: foliage application, 320 g/ha, evaluated three weeks after application
# How it was run: (§1)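 Plants sown in sterilized diluvial soil and grown 14 days in a greenhouse at 25° C to 30° C, then sprayed on the foliage with the compound's emulsion diluted in water to a predetermined herbicide amount. Injury to weeds and crops scored three weeks after application on a visual rating scale.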
# redroot pigweed = test: Test Example 5: herbicidal effect by foliage application, plastic box (Table 20, symbol N); type: in vivo, redroot pigweed (Amaranthus retroflexus); conditions: foliage application, 320 g/ha, evaluated three weeks after application
# How it was run: as §1
# windgrass = test: Test Example 4: herbicidal effect by soil treatment (Table 19, symbol L); type: in vivo, windgrass (Apera spica-venti); conditions: amount of applied herbicide 320 g/ha
# How it was run: (§2)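 Three weeks of greenhouse growth at 25° C. to 30° C. followed a uniform surface spray of water-diluted emulsion at a predetermined herbicide amount. Seeds had been sown beforehand under about 1.5 cm of sterilized diluvial soil. Grading followed criteria set out in an earlier test.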
# late watergrass = test: Test Example 2: herbicidal activity, application during weed generation under submerged conditions (Table 17, symbol A); type: in vivo, late watergrass (Echinochloa oryzicola); conditions: AAH 320 g/ha; application during weed generation, submerged conditions
# How it was run: (§3)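 In this pot test, flooded alluvial soil (water depth 4 cm) holds all three species sown as a mixture. Once seedlings have one to two leaves, the compound's emulsion, thinned with water to the intended dose, is poured on the water; grading follows after three weeks on the earlier criteria.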
# Japanese bulrush = test: Test Example 1: herbicidal activity, application before weed generation under submerged conditions (Table 16, symbol B); type: in vivo, Japanese bulrush (Schoenoplectus juncoides); conditions: 320 g/ha applied herbicide
# How it was run: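 Alluvial soil was flooded to 4 cm depth, weed seeds were sown mixed and 2.5-leaf rice seedlings were transplanted. On sowing day, the compound's emulsion, diluted in water to a set dose, was applied to the water surface. Plants grew at 25–30 °C and were scored 0–5 after three weeks.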
# lambsquarters [1] = test: Test Example 4: herbicidal effect by soil treatment (Table 19, symbol O); type: in vivo, lambsquarters (Chenopodium album); conditions: amount of applied herbicide 320 g/ha
# How it was run: as §2
# Italian ryegrass [2] = test: Test Example 5: herbicidal effect by foliage application, plastic box (Table 20, symbol K); type: in vivo, Italian ryegrass (Lolium multiflorum); conditions: foliage application, 320 g/ha, evaluated three weeks after application
# How it was run: as §1
# southern crabgrass = test: Test Example 4: herbicidal effect by soil treatment (Table 19, symbol F); type: in vivo, southern crabgrass (Digitaria ciliaris); conditions: amount of applied herbicide 320 g/ha
# How it was run: as §2
# Chinese sprangletop = test: Test Example 3: herbicidal effect by foliage application, Wagner pot (Table 18, symbol D); type: in vivo, chinese sprangletop (Leptochloa chinensis); conditions: amount of applied herbicide 320 g/ha
# How it was run: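 Plants were sown in alluvial soil held under 0.1–0.5 cm standing water and grown 14 days in a greenhouse at 25–30 °C. An emulsifiable formulation, water-diluted to the set dose, was then sprayed onto the foliage, and effects were scored three weeks later using previously defined criteria.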
# oval-leafed pondweed = test: Test Example 2: herbicidal activity, application during weed generation under submerged conditions (Table 17, symbol C); type: in vivo, oval-leafed pondweed (Monochoria vaginalis); conditions: AAH 320 g/ha; application during weed generation, submerged conditions
# How it was run: as §3
# lambsquarters [3] = test: Test Example 5: herbicidal effect by foliage application, plastic box (Table 20, symbol O); type: in vivo, lambsquarters (Chenopodium album); conditions: foliage application, 320 g/ha, evaluated three weeks after application
# How it was run: as §1
# Italian ryegrass [4] = test: Test Example 4: herbicidal effect by soil treatment (Table 19, symbol K); type: in vivo, Italian ryegrass (Lolium multiflorum); conditions: amount of applied herbicide 320 g/ha
# How it was run: as §2
# wild oat = test: Test Example 4: herbicidal effect by soil treatment (Table 19, symbol I); type: in vivo, wild oat (Avena fatua); conditions: amount of applied herbicide 320 g/ha
# How it was run: as §2
# green foxtail = test: Test Example 5: herbicidal effect by foliage application, plastic box (Table 20, symbol G); type: in vivo, green foxtail (Setaria viridis); conditions: foliage application, 320 g/ha, evaluated three weeks after application
# How it was run: as §1
# blackgrass = test: Test Example 4: herbicidal effect by soil treatment (Table 19, symbol J); type: in vivo, blackgrass (Alopecurus myosuroides); conditions: amount of applied herbicide 320 g/ha
# How it was run: as §2
# velvetleaf = test: Test Example 5: herbicidal effect by foliage application, plastic box (Table 20, symbol M); type: in vivo, velvetleaf (Abutilon theophrasti); conditions: foliage application, 320 g/ha, evaluated three weeks after application
# How it was run: as §1
structure (smiles),measurement,setting,value
Cc1nn(C)c(=O)c(-c2c(-c3ccc(C(F)(F)F)cc3)sc3ccc(Cl)cc23)c1O [2-111],herbicidal effect on P: chickweed,chickweed,5 (Herbicidal rate of 90% or more (almost completely withered))
same,herbicidal effect on N: redroot pigweed,redroot pigweed,5 (Herbicidal rate of 90% or more (almost completely withered))
same,"L: windgrass, herbicidal effect rating",windgrass,5 (Herbicidal rate of 90% or more (almost completely withered))
same,"herbicidal effect rating, A: late watergrass",late watergrass,2 (Herbicidal rate of 20% or more and less than 40%)
same,Herbicidal effect on B: Japanese bulrush (grade 0-5),Japanese bulrush,3 (Herbicidal rate of 40% or more and less than 70%)
same,"O: lambsquarters, herbicidal effect rating",lambsquarters [1],4 (Herbicidal rate of 70% or more and less than 90%)
same,herbicidal effect on K: Italian ryegrass,Italian ryegrass [2],3 (Herbicidal rate of 40% or more and less than 70%)
same,"F: southern crabgrass, herbicidal effect rating",southern crabgrass,0 (Herbicidal rate of 5% or less (almost no effect))
same,herbicidal effect on D: Chinese sprangletop,Chinese sprangletop,2 (Herbicidal rate of 20% or more and less than 40%)
same,"herbicidal effect rating, C: oval-leafed pondweed",oval-leafed pondweed,0 (Herbicidal rate of 5% or less (almost no effect))
same,herbicidal effect on O: lambsquarters,lambsquarters [3],3 (Herbicidal rate of 40% or more and less than 70%)
same,"K: Italian ryegrass, herbicidal effect rating",Italian ryegrass [4],3 (Herbicidal rate of 40% or more and less than 70%)
same,"I: wild oat, herbicidal effect rating",wild oat,0 (Herbicidal rate of 5% or less (almost no effect))
same,herbicidal effect on G: green foxtail,green foxtail,0 (Herbicidal rate of 5% or less (almost no effect))
same,"J: blackgrass, herbicidal effect rating",blackgrass,5 (Herbicidal rate of 90% or more (almost completely withered))
same,herbicidal effect on M: velvetleaf,velvetleaf,3 (Herbicidal rate of 40% or more and less than 70%)
CCCC(=O)Oc1c(C)nn(C)c(=O)c1-c1c(-c2ccccc2OC)sc2ccc(C)cc12 [2-139],herbicidal effect on P: chickweed,chickweed,5 (Herbicidal rate of 90% or more (almost completely withered))
same,herbicidal effect on N: redroot pigweed,redroot pigweed,4 (Herbicidal rate of 70% or more and less than 90%)
same,"L: windgrass, herbicidal effect rating",windgrass,0 (Herbicidal rate of 5% or less (almost no effect))
same,"herbicidal effect rating, A: late watergrass",late watergrass,3 (Herbicidal rate of 40% or more and less than 70%)
same,Herbicidal effect on B: Japanese bulrush (grade 0-5),Japanese bulrush,3 (Herbicidal rate of 40% or more and less than 70%)
same,"O: lambsquarters, herbicidal effect rating",lambsquarters [1],0 (Herbicidal rate of 5% or less (almost no effect))
same,herbicidal effect on K: Italian ryegrass,Italian ryegrass [2],1 (Herbicidal rate of 5% or more and less than 20%)
same,"F: southern crabgrass, herbicidal effect rating",southern crabgrass,0 (Herbicidal rate of 5% or less (almost no effect))
same,herbicidal effect on D: Chinese sprangletop,Chinese sprangletop,0 (Herbicidal rate of 5% or less (almost no effect))
same,"herbicidal effect rating, C: oval-leafed pondweed",oval-leafed pondweed,0 (Herbicidal rate of 5% or less (almost no effect))
same,herbicidal effect on O: lambsquarters,lambsquarters [3],3 (Herbicidal rate of 40% or more and less than 70%)
same,"K: Italian ryegrass, herbicidal effect rating",Italian ryegrass [4],1 (Herbicidal rate of 5% or more and less than 20%)
same,"I: wild oat, herbicidal effect rating",wild oat,0 (Herbicidal rate of 5% or less (almost no effect))
same,herbicidal effect on G: green foxtail,green foxtail,3 (Herbicidal rate of 40% or more and less than 70%)
same,"J: blackgrass, herbicidal effect rating",blackgrass,1 (Herbicidal rate of 5% or more and less than 20%)
same,herbicidal effect on M: velvetleaf,velvetleaf,3 (Herbicidal rate of 40% or more and less than 70%)
C=Cc1ccc2sc(-c3ccccc3OC)c(-c3c(O)c(C)nn(C)c3=O)c2c1 [2-185],herbicidal effect on P: chickweed (criteria 0-5),chickweed,5 (Herbicidal rate of 90% or more (almost completely withered))
same,herbicidal effect on N: redroot pigweed (criteria 0-5),redroot pigweed,5 (Herbicidal rate of 90% or more (almost completely withered))
same,"L: windgrass, herbicidal effect rating",windgrass,0 (Herbicidal rate of 5% or less (almost no effect))
same,"herbicidal effect rating, A: late watergrass",late watergrass,3 (Herbicidal rate of 40% or more and less than 70%)
same,Herbicidal effect on B: Japanese bulrush (grade 0-5),Japanese bulrush,5 (Herbicidal rate of 90% or more (almost completely withered))
same,"O: lambsquarters, herbicidal effect rating",lambsquarters [1],1 (Herbicidal rate of 5% or more and less than 20%)
same,herbicidal effect on K: Italian ryegrass (criteria 0-5),Italian ryegrass [2],0 (Herbicidal rate of 5% or less (almost no effect))
same,"F: southern crabgrass, herbicidal effect rating",southern crabgrass,0 (Herbicidal rate of 5% or less (almost no effect))
same,herbicidal effect on D: Chinese sprangletop,Chinese sprangletop,0 (Herbicidal rate of 5% or less (almost no effect))
same,"herbicidal effect rating, C: oval-leafed pondweed",oval-leafed pondweed,0 (Herbicidal rate of 5% or less (almost no effect))
same,herbicidal effect on O: lambsquarters (criteria 0-5),lambsquarters [3],4 (Herbicidal rate of 70% or more and less than 90%)
same,"K: Italian ryegrass, herbicidal effect rating",Italian ryegrass [4],0 (Herbicidal rate of 5% or less (almost no effect))
same,"I: wild oat, herbicidal effect rating",wild oat,0 (Herbicidal rate of 5% or less (almost no effect))
same,herbicidal effect on G: green foxtail (criteria 0-5),green foxtail,3 (Herbicidal rate of 40% or more and less than 70%)
same,"J: blackgrass, herbicidal effect rating",blackgrass,0 (Herbicidal rate of 5% or less (almost no effect))
same,herbicidal effect on M: velvetleaf (criteria 0-5),velvetleaf,5 (Herbicidal rate of 90% or more (almost completely withered))
Cc1nn(C)c(=O)c(-c2c(-c3ccccc3)sc3ccc(F)cc23)c1O [2-197],herbicidal effect on P: chickweed (criteria 0-5),chickweed,5 (Herbicidal rate of 90% or more (almost completely withered))
same,herbicidal effect on N: redroot pigweed (criteria 0-5),redroot pigweed,5 (Herbicidal rate of 90% or more (almost completely withered))
same,"L: windgrass, herbicidal effect rating",windgrass,1 (Herbicidal rate of 5% or more and less than 20%)
same,"herbicidal effect rating, A: late watergrass",late watergrass,3 (Herbicidal rate of 40% or more and less than 70%)
same,Herbicidal effect on B: Japanese bulrush (grade 0-5),Japanese bulrush,3 (Herbicidal rate of 40% or more and less than 70%)
same,"O: lambsquarters, herbicidal effect rating",lambsquarters [1],5 (Herbicidal rate of 90% or more (almost completely withered))
same,herbicidal effect on K: Italian ryegrass (criteria 0-5),Italian ryegrass [2],4 (Herbicidal rate of 70% or more and less than 90%)
same,"F: southern crabgrass, herbicidal effect rating",southern crabgrass,4 (Herbicidal rate of 70% or more and less than 90%)
same,herbicidal effect on D: Chinese sprangletop,Chinese sprangletop,5 (Herbicidal rate of 90% or more (almost completely withered))
same,"herbicidal effect rating, C: oval-leafed pondweed",oval-leafed pondweed,4 (Herbicidal rate of 70% or more and less than 90%)
same,herbicidal effect on O: lambsquarters (criteria 0-5),lambsquarters [3],5 (Herbicidal rate of 90% or more (almost completely withered))
same,"K: Italian ryegrass, herbicidal effect rating",Italian ryegrass [4],4 (Herbicidal rate of 70% or more and less than 90%)
same,"I: wild oat, herbicidal effect rating",wild oat,1 (Herbicidal rate of 5% or more and less than 20%)
same,herbicidal effect on G: green foxtail (criteria 0-5),green foxtail,5 (Herbicidal rate of 90% or more (almost completely withered))
same,"J: blackgrass, herbicidal effect rating",blackgrass,3 (Herbicidal rate of 40% or more and less than 70%)
same,herbicidal effect on M: velvetleaf (criteria 0-5),velvetleaf,5 (Herbicidal rate of 90% or more (almost completely withered))
CCCC(=O)Oc1c(C)nn(C)c(=O)c1-c1c(-c2ccccc2)sc2ccc(F)cc12 [2-198],herbicidal effect on P: chickweed (criteria 0-5),chickweed,5 (Herbicidal rate of 90% or more (almost completely withered))
same,herbicidal effect on N: redroot pigweed (criteria 0-5),redroot pigweed,5 (Herbicidal rate of 90% or more (almost completely withered))
same,"L: windgrass, herbicidal effect rating",windgrass,3 (Herbicidal rate of 40% or more and less than 70%)
same,"herbicidal effect rating, A: late watergrass",late watergrass,2 (Herbicidal rate of 20% or more and less than 40%)
same,Herbicidal effect on B: Japanese bulrush (grade 0-5),Japanese bulrush,3 (Herbicidal rate of 40% or more and less than 70%)
same,"O: lambsquarters, herbicidal effect rating",lambsquarters [1],4 (Herbicidal rate of 70% or more and less than 90%)
same,herbicidal effect on K: Italian ryegrass (criteria 0-5),Italian ryegrass [2],5 (Herbicidal rate of 90% or more (almost completely withered))
same,"F: southern crabgrass, herbicidal effect rating",southern crabgrass,5 (Herbicidal rate of 90% or more (almost completely withered))
same,herbicidal effect on D: Chinese sprangletop,Chinese sprangletop,5 (Herbicidal rate of 90% or more (almost completely withered))
same,"herbicidal effect rating, C: oval-leafed pondweed",oval-leafed pondweed,4 (Herbicidal rate of 70% or more and less than 90%)
same,herbicidal effect on O: lambsquarters (criteria 0-5),lambsquarters [3],5 (Herbicidal rate of 90% or more (almost completely withered))
same,"K: Italian ryegrass, herbicidal effect rating",Italian ryegrass [4],4 (Herbicidal rate of 70% or more and less than 90%)
same,"I: wild oat, herbicidal effect rating",wild oat,4 (Herbicidal rate of 70% or more and less than 90%)
same,herbicidal effect on G: green foxtail (criteria 0-5),green foxtail,4 (Herbicidal rate of 70% or more and less than 90%)
same,"J: blackgrass, herbicidal effect rating",blackgrass,4 (Herbicidal rate of 70% or more and less than 90%)
same,herbicidal effect on M: velvetleaf (criteria 0-5),velvetleaf,5 (Herbicidal rate of 90% or more (almost completely withered))
